Experimental data taken from US20160319367A1, “MEANS AND METHODS FOR TYPING A BREAST CANCER PATIENT AND ASSIGNING THERAPY BASED ON THE TYPING” (STICHTING HET NEDERLANDS KANKER INSTITUUT-ANTONI VAN …, priority 2013, published 2016).

How the values were obtained:
[1] = tested on: ZR-75-1 cells; experiment: RNA-seq global gene expression analysis in ZR-75-1 cells; format: cell-based, human; conditions: hormone depletion for 72 hours, treated for 48 hours, RNAseq, p<0.05
Experimental: Transcriptome sequencing analysis of the cell line ZR-75-1 with stable USP9X knockdown or a control vector were performed using RNA-Seq. The reads (14-30 million 50 bp single-end) were mapped to the human reference genome (hg19) using TopHat (Trapnell et al., 2009. Bioinformatics 25: 1105-1127), which allows to span exon-exon splice junctions. TopHat was supplied with a known set of gene models (Ensembl version 64). The open-source tool HTSeq-Count was used to obtain gene expressions. This tool generates a list of the total number of uniquely mapped sequencing reads for each gene that is present in the provided Gene Transfer Format (GTF) file. In order to identify differentially expressed genes, the random sampling model in the R package […] al., 2010. Bioinformatics 26: 136-8.28) was used. […] The input of this method is the absolute number of reads for a gene, which is the output of HTSeq-count. Genes with no expression across both samples in the comparison were discarded from the dataset. The expression levels of the remaining genes were added with 1 in order to avoid negative values after log 2 transformation during the normalization step within this method. […] We therefore asked whether USP9X knockdown in tamoxifen-treated cells would also give rise to a typical estradiol-responsive gene set. […]

[2] = tested on: ZR-75-1 cells; experiment: Colony formation / proliferation assay in ZR-75-1 cells; format: cell-based, human; conditions: 1 μM 4OH-tamoxifen or 10^-7 M fulvestrant
Experimental: The human breast cancer cell lines ZR-75-1 (ATCC CRL-1500), MDA-MB-231 (ATCC HTB-26) and T47D (ATCC HTB133) were cultured in DMEM supplemented with 10% FCS, 2 mM glutamine, 100 μg/ml penicillin, 100 μg/ml streptomycin, and 1 nM estradiol at 37° C. in 5% CO2. […] Phoenix cells (ATCC CRL-3214) were cultured at 37° C. in 5% CO2 in DMEM with 10% FCS, 2 mM glutamine, 100 μg/ml penicillin, and 100 μg/ml streptomycin.
Cells were infected with retroviral supernatant and selected with puromycin (2.0 μg/ml). […] When colonies appeared, cells were fixed in MeOH/HAc (3:1) and subsequently stained with 50% MeOH/10% HAc/0.1% Coomassie.

[3] = tested on: ERα; experiment: ERα ChIP-seq (ERα/chromatin interactions) in ZR-75-1 cells; format: cell-based, human; conditions: control ZR-75-1 cells (pRS-GFP), hormone depleted 72 hours, ligand for 48 hours
Experimental: Chromatin Immunoprecipitations (ChIP) were performed as described before (Schmidt et al., 2009. Methods 48: 240-8). For each ChIP, 10 μg of antibody was used, and 100 μl of Protein A magnetic beads (Invitrogen). The antibody used was raised against ERα (SC-543; Santa Cruz).
ChIP DNA was amplified as described (Schmidt et al., 2009. Methods 48: 240-8). Sequences were generated by the Illumina Hiseq 2000 genome analyser (using 50 bp reads), and aligned to the Human Reference Genome (assembly hg19, February 2009). Enriched regions of the genome were identified by comparing the ChIP samples to mixed input using the MACS peak caller (Zhang et al., 2008. Genome Biol 9: R137) version 1.3.7.1.
ChIP-seq data snapshots were generated using the Integrative Genome Viewer IGV 2.1 (www.broadinstitute.org/igv/). Motif analyses were performed through the Cistrome (cistrome.org), applying the SeqPos motif tool (He et al., 2010. Nat Genet 42: 343-7). The genomic distributions of binding sites were analysed using the cis-regulatory element annotation system (CEAS) (Ji et al., 2006. Nucleic Acids Res 34: W551-4). The genes closest to the binding site on both strands were analysed. If the binding region is within a gene, CEAS software indicates whether it is in a 5′UTR, a 3′UTR, a coding exon, or an intron. Promoter is defined as 3 kb upstream from RefSeq 5′ start. […]

[4] = cited from earlier work
[5] = early breast cancer, 5 years of adjuvant treatment

For `C[C@]12CC[C@@H]3c4ccc(O)cc4CC[C@H]3[C@@H]1CC[C@@H]2O` [estradiol], the “number of genes with altered expression as compared to vehicle” value [1] was 8794 genes.

With `C[C@]12CC[C@@H]3c4ccc(O)cc4C[C@@H](CCCCCCCCC[S+]([O-])CCCC(F)(F)C(F)(F)F)[C@H]3[C@@H]1CC[C@@H]2O` (stereo partly drawn) [fulvestrant, (7α,17β)-7-{9-[(4,4,5,5,5-pentafluoropentyl)sulfinyl]nonyl}estra-1,3,5(10)-triene-3,17-diol] the cell proliferation [2] was “proliferation arrest”.

With `CC/C(=C(\c1ccc(O)cc1)c1ccc(OCCN(C)C)cc1)c1ccccc1` [4OH-tamoxifen] the “number of genes with altered expression as compared to vehicle” value [1] was 1906 genes and the ERα/chromatin interactions [3] was “far less pronounced”.

In the case of `CC/C(=C(\c1ccccc1)c1ccc(OCCN(C)C)cc1)c1ccccc1.O=C(O)CC(O)(CC(=O)O)C(=O)O` [tamoxifen, (Z)2-[4-(1,2-diphenyl-1-butenyl)phenoxy]-N, N-dimethylethanamine 2-hydroxy-1,2,3-propanetricarboxylate (1:1)], the “rate of disease recurrence” value [4, 5] is listed as “almost halves”, the “reduction of annual breast cancer death rate” value [4, 5] is listed as “one-third” and the “women who still develop recurrent disease despite adjuvant treatment” value ([4]; in the next 15 years) is listed as “one-third”.
